Measured values as given in paper PMC7570859, “Simultaneous Quantification and Pharmacokinetic Study of Five Homologs of Dalbavancin in Rat Plasma Using UHPLC-MS/MS” (Molecules, 2020).
Read-outs that look alike come from different tables or passages of the source.

How the values were obtained:
[1] = Pharmacokinetic study of dalbavancin components in rat plasma after IV dalbavancin hydrochloride (UHPLC-MS/MS); details: SD rats, IV 40 mg/kg dalbavancin hydrochloride, mean ± SD, n = 10; for AUC(0–t): 0 to 216 h; for AUC(0–t) / AUC(0–∞): UHPLC-MS/MS, non-compartmental; for MRT / half-life / Vd: both, Sprague-Dawley, rat, iv, 40 mg/kg; for MRT: MRT(0–t); for Vd: Vz (apparent volume of distribution)
Description: (§1) A total of 20 animal plasma samples were analyzed using the verified UHPLC-MS/MS detection method to evaluate 28-day multiple-dose pharmacokinetics of dalbavancin hydrochloride injected daily in rats.
(§2) Blood samples were collected and centrifuged (5417R centrifuge, Eppendorf AG, Hamburg, Germany) at 835× g for 10 min to separate the upper plasma. Then, 50 μL of plasma was mixed with 200 μL of methanol (containing dalbavancin B0-D8 isotope internal standard solutions at a concentration of 100 ng/mL), after which the solution was swirled with a multi-tube vortex mixer (Allsheng, Hangzhou, China) for 10 min and centrifuged at 12,000× g for 10 min. To obtain a cleaner supernatant, it was further centrifuged at 12,000× g for 5 min before sample injection.
(§3) The UHPLC system consisted of an ACQUITY UPLC I-Class (Waters Corp., Milford, MA, USA) and separation was achieved on an ACQUITY UPLC BEH C18 (2.1 mm × 100 mm, 1.7 μm, Waters Corp.). The mobile phase contained 0.1% formic acid (phase A) and acetonitrile (phase B), while the gradient elution procedure was as follows; 0.00–1.00 min: 20%B→30%B, 1.00–6.00 min: 30%B→33%B, 6.01–7.00 min: 95%B, 7.00–7.01 min: 95%B→20%B, 7.01–8.00 min: 20%B. The flow rate was 0.300 mL/min, and the sample injection volume was 5.0 μL. The autosampler was maintained at 6 °C.
(§4) The mass spectrometry system used was Xevo TQ triple quadrupole MS/MS (Waters Corp.), equipped with ESI source. After injecting 500 ng/mL of dalbavancin component combined solution and dalbavancin isotope internal standard solution into the mass spectrometer, the optimized parameters of the instrument were obtained as follows: capillary voltage, 3.00 kV; ion source temperature, 150 °C; desolvation gas temperature, 350 °C; collision gas flow rate, 0.15 mL/min; desolvation gas flow rate, 650 L/h. SRM was used for monitoring the positive ion mode and the total analysis run time was 8 min. Data was processed using UNIFI v1.9.3 software (Waters Corp.).
(§5) A total of 20 SD rats (weighing approximately 200 g each) were selected and divided into two equal groups, with each group containing 5 male and 5 female rats. Pharmacokinetic experiments were conducted for single-dose and multiple-dose administration of dalbavancin hydrochloride. The route of administration was IV, with an administration volume of 5 mL/kg and a dosage was 40 mg/kg. Blood sampling time points of the single-dose administration group were before administration (0 h) and 5 min, 3 h, 8 h, 24 h, 72 h, 144 h, and 216 h post administration. Blood was collected on day 28 for the multiple-dose administration group, and the time points of blood collection were the same as those of single-dose administration. The blood samples collected were immediately separated using centrifugation at 12,000× g for 10 min, and then, the plasma were transferred and stored at −16 °C to −24 °C until analysis.
(§6) Microsoft Office Excel 2007 and IBM SPSS Statistics 19.0 were used for data processing and statistical calculation using two-tailed Student’s t-test. Data Analysis System 3.1 software (DAS, Shanghai, China) was used to analyze and calculate AUC(0–∞), T1/2, Cmax and other parameters using the non-compartmental model.

[2] = rat, in vivo, iv, 40 mg/kg
Description: as §1, §2, §3, §4, §5, §6

[3] = in vivo; cited from earlier work
[4] = D28, multiple-dose group, daily for 28 days
[5] = T1/2, D28, multiple-dose group, daily for 28 days

Molecule | AUC(0–t) ([1]; D1, single-dose group) [µg·h/mL] | AUC(0–∞) ([1]; D1, single-dose group) [µg·h/mL] | Cmax ([1]; D1, single-dose group) [ng/mL] | Vz (apparent volume of distribution) ([1]; D1, single-dose group) [L/kg] | MRT ([1]; D1, single-dose group) [h] | MRT [1, 4] [h] | half-life ([1]; T1/2, D1, single-dose group) [h] | Vd [1, 4] [L/kg] | half-life [1, 5] [h] | MRT(0–t) ([2]; both, Sprague-Dawley) [h] | T1/2 ([2]; both, Sprague-Dawley) [h] | Vz (apparent volume of distribution) ([2]; both, Sprague-Dawley) [L/kg] | AUC(0–t) [2] [µg·h/mL] | AUC(0–∞) [2] [µg·h/mL] | Cmax [2] [ng/mL] | plasma AUC(0–∞) relative to the other components combined [2] | Vd ([1]; D1, single-dose group) [L/kg] | adverse event: diarrhea [3] [%] | adverse event: headache [3] [%] | adverse event: nausea [3] [%]
CN[C@H]1C(=O)N[C@@H]2Cc3ccc(cc3)Oc3cc4cc(c3O[C@@H]3O[C@H](C(=O)O)[C@@H](O)[C@H](O)[C@H]3NC(=O)CCCCCCCC(C)C)Oc3ccc(cc3Cl)[C@@H](O)[C@@H]3NC(=O)[C@H](NC(=O)[C@@H]4NC(=O)[C@@H](NC2=O)c2cc(cc(O)c2Cl)Oc2cc1ccc2O)c1ccc(O)c(c1)-c1c(O[C@H]2O[C@H](CO)[C@@H](O)[C@H](O)[C@@H]2O)cc(O)cc1[C@@H](C(=O)NCCCN(C)C)NC3=O [A0] | 10.5 ± 2.6 | 11.8 ± 2.6 | 1800 ± 200 | 32.9 ± 5.7 | 5.6 ± 0.3 | 60.7 ± 2.7 | 6.5 ± 0.6 | 196 ± 27.3 |  |  |  |  |  |  |  |  |  |  |  | 
CCCCCCCCCCC(=O)N[C@H]1[C@H](Oc2c3cc4cc2Oc2ccc(cc2Cl)[C@@H](O)[C@@H]2NC(=O)[C@H](NC(=O)[C@@H]4NC(=O)[C@H]4NC(=O)[C@@H](Cc5ccc(cc5)O3)NC(=O)[C@H](NC)c3ccc(O)c(c3)Oc3cc(O)c(Cl)c4c3)c3ccc(O)c(c3)-c3c(O[C@H]4O[C@H](CO)[C@@H](O)[C@H](O)[C@@H]4O)cc(O)cc3[C@@H](C(=O)NCCCN(C)C)NC2=O)O[C@H](C(=O)O)[C@@H](O)[C@@H]1O [A1] | 155.4 ± 79.9 | 173.1 ± 65.6 | 14800 ± 6100 | 9.4 ± 3.3 | 17 ± 3.8 | 53 ± 5.2 | 27.5 ± 11.4 | 10.1 ± 1.3 | 110 ± 10.6 |  |  |  |  |  |  |  |  |  |  | 
CN[C@H]1C(=O)N[C@@H]2Cc3ccc(cc3)Oc3cc4cc(c3O[C@@H]3O[C@H](C(=O)O)[C@@H](O)[C@H](O)[C@H]3NC(=O)CCCCCCCCC(C)C)Oc3ccc(cc3Cl)[C@@H](O)[C@@H]3NC(=O)[C@H](NC(=O)[C@@H]4NC(=O)[C@@H](NC2=O)c2cc(cc(O)c2Cl)Oc2cc1ccc2O)c1ccc(O)c(c1)-c1c(O[C@H]2O[C@H](CO)[C@@H](O)[C@H](O)[C@@H]2O)cc(O)cc1[C@@H](C(=O)NCCCN(C)C)NC3=O [B0] |  |  |  |  |  |  |  |  |  | 23.0 ± 0.9 | 74.6 ± 45.9 | 0.7 ± 0.5 | 5776.5 ± 2593.2 | 6566.7 ± 1820.3 | 437300 ± 160300 | approximately 5.8 times |  |  |  | 
CCCCCCCCCCCC(=O)N[C@H]1[C@H](Oc2c3cc4cc2Oc2ccc(cc2Cl)[C@@H](O)[C@@H]2NC(=O)[C@H](NC(=O)[C@@H]4NC(=O)[C@H]4NC(=O)[C@@H](Cc5ccc(cc5)O3)NC(=O)[C@H](NC)c3ccc(O)c(c3)Oc3cc(O)c(Cl)c4c3)c3ccc(O)c(c3)-c3c(O[C@H]4O[C@H](CO)[C@@H](O)[C@H](O)[C@@H]4O)cc(O)cc3[C@@H](C(=O)NCCCN(C)C)NC2=O)O[C@H](C(=O)O)[C@@H](O)[C@@H]1O [B1] | 688.2 ± 272.2 | 756.2 ± 191.4 | 42900 ± 18900 |  | 32.3 ± 1.5 | 68.6 ± 8.2 | 29.1 ± 1.1 | 1.2 ± 0.4 | 87 ± 27.5 |  |  |  |  |  |  |  | 2.3 ± 0.4 |  |  | 
CC(C)CCCCCCCCC(=O)N[C@H]1[C@H](Oc2c3cc4cc2Oc2ccc(cc2Cl)[C@@H](O)[C@@H]2NC(=O)[C@H](NC(=O)[C@@H]4NC(=O)[C@H]4NC(=O)[C@@H](Cc5ccc(cc5)O3)NC(=O)[C@H](N(C)C)c3ccc(O)c(c3)Oc3cc(O)c(Cl)c4c3)c3ccc(O)c(c3)-c3c(O[C@H]4O[C@H](CO)[C@@H](O)[C@H](O)[C@@H]4O)cc(O)cc3[C@@H](C(=O)NCCCN(C)C)NC2=O)O[C@H](C(=O)O)[C@@H](O)[C@@H]1O [B2] | 163.7 ± 79.5 | 187.2 ± 61.2 | 23400 ± 10400 |  | 16.2 ± 2.4 | 55.7 ± 4.7 | 87.3 ± 68.9 | 13.5 ± 3.4 | 153 ± 43 |  |  |  |  |  |  |  | 28 ± 23 |  |  | 
Dalbavancin |  |  |  |  |  |  |  |  |  |  |  |  |  |  |  |  |  | 4.4 | 4.7 | 5.5
